{
  "source": "patent US8062678B2",
  "about": "“Extractive of Piper laetispicum C.DC., its process and its uses” (priority 2004, dated 2011)",
  "key": {"[1]": {"tested_on": "rat brain synaptosome (re)uptake of dopamine (3H-DA)", "assay": "Inhibition of brain synaptosome uptake of dopamine", "type": "biochemical", "conditions": "positive control drug 1 mM; 3H-DA 300 nM, 37° C.; lower CPM = more inhibition", "text": "The physiological mechanism for the […] and dopaminergic functions is similar to that for 5-hydroxytryptamine. Clinically, there are many antidepressant drugs that can block the reuptake of noradrenaline and/or 5-hydroxytryptamine and/or dopamine.\nFirst of all, the method of Whittaker et al (Whittaker V P & Barker L A. The subcellular tractionation of brain tissue with special reference to the preparation of synaptosomes and their component organelles. In: Fried R. ed. In Methods in Neurochemistry, Vol. New York: Marcel Dakker, Inc, 1972) is referred to for preparing brain synaptosome, and the specific procedures are: decapitate the rat and take out the cerebrum quickly, place it in precooled normal saline, and remove cerebral pia mater and vascular tissues. Take cerebral cortex, and place it in cold sugar solution. Use ultrasonic cell disruptor for producing homogenate and centrifuging to obtain refined brain synaptosome for future use. […]"}, "[2]": {"target": "T1, MAO-B in mouse brain (Mus musculus, UniProt Q8BW75)", "T1 construct": "from tissue; host or cells: mouse brain", "T1 sequence (Q8BW75 1-520)": "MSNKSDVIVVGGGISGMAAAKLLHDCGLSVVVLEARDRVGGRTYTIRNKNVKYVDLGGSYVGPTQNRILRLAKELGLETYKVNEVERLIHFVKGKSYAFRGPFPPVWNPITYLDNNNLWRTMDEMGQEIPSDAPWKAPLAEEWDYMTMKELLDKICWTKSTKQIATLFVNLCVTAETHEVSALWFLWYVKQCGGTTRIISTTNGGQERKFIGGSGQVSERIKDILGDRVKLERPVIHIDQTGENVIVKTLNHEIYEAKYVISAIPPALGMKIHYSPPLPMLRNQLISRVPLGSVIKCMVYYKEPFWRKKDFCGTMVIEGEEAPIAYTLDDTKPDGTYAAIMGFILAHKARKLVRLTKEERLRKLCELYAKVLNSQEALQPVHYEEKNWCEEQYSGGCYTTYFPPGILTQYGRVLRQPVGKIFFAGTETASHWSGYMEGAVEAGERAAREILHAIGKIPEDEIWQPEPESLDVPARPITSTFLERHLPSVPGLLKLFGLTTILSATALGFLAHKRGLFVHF", "assay": "Inhibition of monoamine oxidase B in the brains of mice", "type": "in vivo", "conditions": "25 mg/kg; mouse brain after 14 days; x ± SD, n = 10", "text": "(§1) The biological function of monoamine oxidase (MAO) lies in its adjustment of the level for in vivo endogenous amines (noradrenaline, dopamine and 5-hydroxytryptamine) and exogenous amine substances. Based on its substrate and its inhibitor specificity, monoamine oxidase can be divided into two types (MAO-A and MAO-B). Dopamine and tyramine are two MAO substrates, 5-HT and noradrenaline are Type A substrates, while β-phenethylamine and benzylamine are Type B substrates, and iprazid and tranylcypromine are nonselective inhibitors for MAO.\n(§2) The mice are randomized into groups, and based on Table 6, intragastric administration of the corresponding doses of test Drug A (Sample 1-1 in Case of Implementation 1) is performed for each of the groups, which are administered once a day consecutively for 14 days, and normal saline is used as a control at the same time, and the positive control is paxil. One (1) hour after the last administration, the animals are put to death through neck dislocation, and the brain is immediately taken for testing MAO activity."}, "[3]": {"target": "T2, MAO-A in mouse brain (Mus musculus, UniProt Q64133)", "T2 construct": "from tissue; host or cells: mouse brain", "T2 sequence (Q64133 1-526)": "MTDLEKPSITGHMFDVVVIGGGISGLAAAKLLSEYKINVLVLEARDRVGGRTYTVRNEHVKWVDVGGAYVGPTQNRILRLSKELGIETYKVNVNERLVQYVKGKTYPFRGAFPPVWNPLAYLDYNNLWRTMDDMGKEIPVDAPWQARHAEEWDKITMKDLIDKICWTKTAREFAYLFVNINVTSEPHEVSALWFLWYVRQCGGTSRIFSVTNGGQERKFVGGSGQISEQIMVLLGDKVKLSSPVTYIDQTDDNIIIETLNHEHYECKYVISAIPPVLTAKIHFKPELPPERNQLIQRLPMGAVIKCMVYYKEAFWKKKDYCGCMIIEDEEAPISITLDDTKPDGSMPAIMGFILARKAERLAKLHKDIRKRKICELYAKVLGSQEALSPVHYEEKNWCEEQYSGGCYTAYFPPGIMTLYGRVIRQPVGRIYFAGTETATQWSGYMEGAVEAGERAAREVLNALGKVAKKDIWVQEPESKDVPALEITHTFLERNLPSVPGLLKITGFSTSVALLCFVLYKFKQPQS", "assay": "Inhibition of monoamine oxidase A in the brains of mice", "type": "in vivo", "conditions": "25 mg/kg; mouse brain after 14 days; x ± SD, n = 10", "text": "as §1, §2"}, "[4]": {"tested_on": "rat", "assay": "Rat swimming test", "type": "in vivo", "conditions": "30 mg/kg/d intragastric, 14 days, 5 minutes swimming, x ± s, n = 10", "experimental": "After having fasted for 4 hours, the rats are placed in a 40×18 cm glass cylinder with water depth at 15 cm (water temperature at 25° C.) for swimming for 15 minutes, and are dried with a hot blower. Then, based on Table 8, the rats are randomized into 6 groups, and each of the groups receives intragastric administration of the corresponding dose of Drug A (Sample 1-1 in Case of Implementation 1) and B (Sample 10 in Case of Implementation 1), which is administered once a day consecutively for 14 days, and normal saline is used as control at the same time, and positive control is Venlafaxine. One (1) hour after the drug is administered for the last time, the rat swimming test begins, the swimming time is 5 minutes, and the motionless time during the 5 minutes for which they are swimming is recorded, and the results are as shown in Table 8."}, "[5]": {"tested_on": "mouse", "assay": "Mouse tail suspension test", "type": "in vivo", "conditions": "50 mg/kg/d intragastric, 14 days, within 6 minutes, x ± s, n = 10", "text": "The tail suspension test is a simple and easy experimental method introduced by Stern et al in 1985 for evaluation of antidepressant drugs. […] Clinically effective antidepressant drugs can reduce the motionless time of the mouse after it cannot successfully escape through its efforts following being suspended at the tail.\nThe mice are randomized into groups, and each of the groups receives intragastric administration of the corresponding dose of Drag A (Sample 1-1 in Case of Implementation 1), B (Sample 10 in Case of Implementation 1), C (Sample 7 in Case of Implementation 1), D (Sample 3 in Case of Implementation 1) and E (Sample 5 in Case of Implementation 1), which is administered once a day consecutively for 14 days, and normal saline is used as control at the same time, and positive control is Venlafaxine. One (1) hour after the drug is administered for the last time, the mouse tail suspension test is performed, the duration is 6 minutes, and the stationary and motionless time within the 6 minutes is recorded, and the results are as shown in Table 9."}, "[6]": {"tested_on": "mouse", "assay": "Mouse swimming test", "type": "in vivo", "conditions": "30 mg/kg/d intragastric, 14 days, within 4 minutes, x ± s, n = 10", "experimental": "The despair test as put forth by Porsolt et al can serve as the evaluation model for the effects of antidepressant drugs. In this model, a mouse or a rat is placed in a limited and inescapable space for swimming, and the animal can be induced to have motionless status. Such status is a reflection of the animal's despair, and the status can be inhibited by some effective antidepressant drugs.\nOne (1) hour after the drug is administered on Day 14, the animal is placed into a 10×20 cm glass cylinder with water depth at 8˜10 cm and water temperature at 22˜24° C. Beginning from the 2nd minute, the accumulated time of motionless status within 4 minutes is recorded, and the results are as shown in Table 7."}, "[7]": {"tested_on": "mouse", "assay": "Analgesic effect, writhing test", "type": "in vivo", "conditions": "50 mg/kg; benzoquinone i.p. 30 minutes after drug; within 10 minutes; x ± s, n = 10", "experimental": "A chemical stimulant with definite solvents and at a definite concentration is injected into the abdominal cavity of the mouse to stimulate splanchnoderm and peritoneum parietale so as to cause deep, large-area and long-time inflammatory pain and result in behavioral reactions in the mouse such as concaving the abdomen, extending the trunk and back limbs and raising the buttocks, which are called the writhing response. […]\nThe mice are randomized into groups, and are respectively given test drugs based on Table 12, namely Drug A (Sample 1-1 in Case of Implementation 1), C (Sample 7 in Case of Implementation 1) and B (Sample 10 in Case of Implementation 1), and normal saline is used as control at the same time, and positive control group is acetyl salicylic acid. The mice are respectively injected intraperitoneally with 0.20 ml of 0.02% benzoquinone water solution 30 minutes later, and are immediately placed into a box with four sides sealed, and, beginning from the first occurrence of writhing responses in the mice, time is kept for 10 minutes, and the number of writhing responses in the mice is recorded within 10 minutes thereafter, and the results are as shown in Table 12."}, "[8]": {"tested_on": "mouse", "assay": "Anti-anxiety effect, mouse four board test", "type": "in vivo", "conditions": "1 mg/kg/d; 30 minutes after drug; within 10 minutes; x ± s, n = 8", "experimental": "The mice are randomized into groups, and are respectively given test drugs based on Table 10, namely Drug A (Sample 1-1 in Case of Implementation 1), B (Sample 10 in Case of Implementation 1), C (Sample 7 in Case of Implementation 1), F (Sample 9 in Case of Implementation 1) and G (Sample 11 in Case of Implementation 1), and normal saline is used as control, and positive control group is diazepam. The mouse is placed on the boards 30 minutes after the drug is administered, and is made to explore for 15 seconds. After that, whenever the mouse moves from one board to another board, one electric shock is given with amperage at 0.35 mA and duration time at 0.5 s. The mouse should present an obvious escape response because of this, and usually moves across 2 boards or 3 boards, if the mouse continues to run, no electric shock is given for […] thereafter."}, "[9]": {"tested_on": "rat brain synaptosome (re)uptake of noradrenaline (3H-NA)", "assay": "Inhibition of brain synaptosome uptake of noradrenaline", "type": "biochemical", "conditions": "positive control drug 0.1 mM; 3H-NA 300 nM, 37° C.; lower CPM = more inhibition", "method": "10 μl of substrate (^3H-5HT, ^3H-NA or ^3H-DA; final reaction concentration: 300 nM) is added in a 4° C. environment and is thoroughly mixed, and the tubes are placed in a 37° C. water bath for a warm bath for 5 minutes. After that, precooled Tris-Krebs buffer is added into each tube to terminate reaction, and the multichannel cell harvestor is immediately used for sucking filtration through fiberglass filter membrane, and the same solution in the same volume is used to wash tubes and filter. The filter membrane is removed and oven dried. The filter membrane is placed in the scintillation vial, methylbenzene scintillation fluid is added, and counting is performed with the β-liquid scintillation counter."}},
  "data": [
    {"smiles": "Fc1ccc([C@@H]2CCNC[C@H]2COc2ccc3c(c2)OCO3)cc1", "note": "[Paxil]", "values": [
      {"measurement": "Inhibition of Monoamine Uptake (CPM) Dopamine", "setting": "[1]", "result": 1197, "unit": "CPM"},
      {"measurement": "MAO-B (OD)", "setting": "[2]", "result": "0.025 ± 0.008", "unit": "OD"},
      {"measurement": "MAO-A (OD)", "setting": "[3]", "result": "0.012 ± 0.005", "unit": "OD"}
    ]},
    {"smiles": "COc1ccc(C(CN(C)C)C2(O)CCCCC2)cc1", "note": "(stereo not drawn) [Venlafaxine]", "values": [
      {"measurement": "Accumulated Motionless Time", "setting": "[4]", "result": "211.2 ± 24.7", "unit": "s"},
      {"measurement": "Accumulated Motionless Time", "setting": "[5]", "result": "57.5 ± 43.0", "unit": "s"}
    ]},
    {"smiles": "CNCCC(Oc1ccc(C(F)(F)F)cc1)c1ccccc1", "note": "(stereo not drawn) [Fluoxetine]", "values": [
      {"measurement": "Accumulated Motionless Time", "setting": "[6]", "result": "73.7 ± 17.2", "unit": "s"}
    ]},
    {"smiles": "CC(=O)Oc1ccccc1C(=O)O", "note": "[acetyl salicylic acid]", "values": [
      {"measurement": "Accumulated Number of Writhing Responses", "setting": "[7]", "result": "9.89 ± 1.09"}
    ]},
    {"smiles": "CN1C(=O)CN=C(c2ccccc2)c2cc(Cl)ccc21", "note": "[diazepam]", "values": [
      {"measurement": "Accumulated Number of Electric Shocks", "setting": "[8]", "result": "12.78 ± 2.05"}
    ]},
    {"smiles": "CNCCCN1c2ccccc2CCc2ccccc21", "note": "[Desipramine]", "values": [
      {"measurement": "Inhibition of Monoamine Uptake (CPM) Noradrenaline", "setting": "[9]", "result": 1499, "unit": "CPM"}
    ]}
  ]
}
